Data: ChEMBL document CHEMBL1857833, “Screening and optimization of specific chemical series against human African Trypanosomiasis (HAT)”
≈ marks a conversion by molar mass, not a printed value. Where “and” joins values, the source holds several entries; their conditions need not be identical. Equal entries are not always repeated.

Assays:
[1] = tested on: Trypanosoma brucei; experiment: DNDI: Mean survival time in days (MSD) of mice after intraperitoneal injection of Human African Trypanosomiasis (HAT), EATRO 110, in vivo at 20 mg/kg/day for 4 days.; assay type: functional, Mus musculus
[2] = in vitro; settings: mouse, liver microsomes, t (1 / 2)
Description: DNDI: half life in mouse liver microsomes at a concentration of 1uM

[3] = mouse, microsomes, 1 µM
Description: DNDI: in vitro intrinsic clearance in mouse liver microsomes at a concentration of 1uM

[4] = tested on: Trypanosoma brucei; experiment: DNDI: Inhibition of Human African Trypanosomiasis, SBRI 427, in vitro; assay type: functional, organism-based
[5] = DNDI: Cytotoxicity against L929 mouse fibroblasts, 72 hour.; assay type: toxicity, cell-based; settings: mouse, L929 mouse fibroblasts
[6] = tested on: Trypanosoma cruzi; experiment: DNDI: Inhibition of Chagas Disease parasite Trypanosoma cruzi (Tulahuen LacZ, Clone C4), in vitro.; assay type: functional, organism-based
[7] = tested on: Plasmodium falciparum; experiment: DNDI: Inhibition of the malaria parasite Plasmodium falciparum, in vitro; assay type: functional, organism-based; settings: K1
[8] = tested on: Trypanosoma brucei rhodesiense; experiment: DNDI: Inhibition of Human African Trypanosomiasis (HAT), STIB 900, in vitro; assay type: functional, organism-based
[9] = DNDI: Cytotoxicity against L-6 rat myoblasts from skeletal muscle cells; assay type: toxicity, cell-based, L6; settings: L-6 rat skeletal muscle myoblasts
[10] = tested on: Leishmania donovani; experiment: DNDI: Inhibition of formation of Leishmania donovani (strain MHOM/ET/67/L82) axenic amastigotes, in vitro.; assay type: functional, organism-based
[11] = DNDI: Cytotoxicity against L929 mouse fibroblasts, CYTO-SP, 24 hour; assay type: toxicity, cell-based; settings: mouse, L929 mouse fibroblasts
[12] = tested on: Trypanosoma brucei; experiment: DNDI: Inhibition of Human African Trypanosomiasis, Cross 22, in vitro; assay type: functional, organism-based
[13] = DNDI: Solubility in phosphate buffered saline at pH7.4 measured by nephelometry at room temperature (NEPH-RT); assay type: physicochemical; settings: pH 7.4
[14] = DNDI: Lipophilicity measured in Chromatographic hydrophobicity index (CHI) assay, pH 7.4; assay type: physicochemical; settings: buffer
[15] = DNDI: Solubility in phosphate buffered saline at pH7.4 measured by optical density (turbidimetry) at room temperature (OD-RT); assay type: physicochemical; settings: pH 7.4
[16] = DNDI: half life in mouse liver microsomes at a concentration of 10uM; assay type: ADME, Microsome
[17] = DNDI: in vitro intrinsic clearance in mouse liver microsomes at a concentration of 10uM; assay type: ADME, Microsome; settings: read-out: CLint in vitro
[18] = Trypanosoma brucei, SBRI 427, read-out: IC50

Structure (SMILES) | MSD [1] [days] | half-life at 1 µM [2] [min] | CLint in vitro [3] [µL/min/mg] | IC50 [4, 18] [µg/mL] | IC50 at 72 h [5] [µg/mL] | IC50 [6] [µg/mL] | IC50 [7] [µg/mL] | IC50 [8] [µg/mL] | IC50 [9] [µg/mL] | IC50 [10] [µg/mL] | IC50 at 24 h [11] [µg/mL] | IC50 [12] [µg/mL] | solubility kinetic [13] [µM] | chromatographic logD [14] | IC50 [4] | solubility kinetic [15] [µM] | half-life at 10 µM [16] [min] | microsomal CLint at 10 µM [17] [µL/min/mg]
CCc1ccc(Oc2ncccc2/C(=N\O)NC2CCCCC2O)cc1 (stereo unspecified) | 4 | 17 | 51 | > 5 | > 10 | – | – | – | – | – | – | – | – | – | – | – | – | –
CCCCCC(C)NCc1coc(-c2ccc(Cl)c(Cl)c2)n1 (stereo unspecified) | – | – | – | 3.68 (≈ 10.8 µM) | 4.75 (≈ 13.9 µM) | 22.2 (≈ 65 µM) | 4.3 (≈ 12.6 µM) | 0.487 (≈ 1.43 µM) | 13.3 (≈ 39 µM) | 16 (≈ 46.9 µM) | 17 (≈ 49.8 µM) | – | – | – | – | – | – | –
Cc1ccc(/C(=N/O)NC2CCCCC2)c(Oc2ccc(C(C)(C)C)cc2)n1 | 4.5 | 8.61 | 98.83 | > 5 | 4.06 (≈ 10.6 µM) | – | – | – | – | – | – | – | – | – | – | – | – | –
O/N=C1/CCCCCN1 | – | – | – | > 5 | > 10 | > 30 | > 5 | > 90 | > 90 | > 90 | > 50 | – | – | – | – | – | – | –
CCC(CC)N/C(=N\O)c1ccccc1-c1ccccc1 | – | – | – | 1.19 (≈ 4.21 µM) | > 10 | 7.73 (≈ 27.4 µM) | 2.18 (≈ 7.72 µM) | 8.99 (≈ 31.8 µM) | 17.2 (≈ 60.9 µM) | 13.3 (≈ 47 µM) | > 50 | – | – | – | – | – | – | –
CCCCCC(C)NCc1coc(-c2ccccc2)n1 (stereo unspecified) | – | – | – | 4.72 (≈ 17.3 µM) | > 10 | 14.6 (≈ 53.6 µM) | 1.21 (≈ 4.44 µM) | 0.823 (≈ 3.02 µM) | 14.3 (≈ 52.4 µM) | 29.5 (≈ 108 µM) | 32 (≈ 117 µM) | – | – | – | – | – | – | –
O/N=C(\NC1CCCCC1)c1ccsc1 | – | – | – | > 5 | > 10 | > 30 | > 5 | 25.9 (≈ 115 µM) | > 83.5 | 13.6 (≈ 60.8 µM) | > 50 | – | – | – | – | – | – | –
CC(C)(C)c1ccc(-c2nc(CNC3CCCCCC3)co2)cc1 | – | – | – | 0.39 (≈ 1.19 µM) | < 3.13 | – | – | – | – | – | > 50 | 0.44 (≈ 1.35 µM) | 25 (≈ 8.16 µg/mL) | 5.41 | 0.3 µg/mL and 0.49 µg/mL | – | – | –
CCc1ccc(N/C(=N/O)c2ccc(OC)cc2)cc1 | 4.5 | – | – | 3.69 (≈ 13.6 µM) | – | – | – | – | – | – | > 50 | – | – | – | – | – | – | –
CCOc1ccc(-c2nc(CNC3CCCCCC3)co2)cc1 | – | 39 | 22 | 1.46 (≈ 4.64 µM) | < 3.13 | – | – | – | – | – | 25.1 (≈ 80 µM) | 1.12 (≈ 3.56 µM) | – | – | 1.36 µg/mL and 0.96 µg/mL | – | – | –
CCc1cccc(N/C(=N/O)c2ccccc2-c2ccccc2)c1 | – | – | – | 1.23 (≈ 3.89 µM) | 2.4 (≈ 7.59 µM) | 5.38 (≈ 17 µM) | 4.43 (≈ 14 µM) | 20.9 (≈ 66.1 µM) | 9.67 (≈ 30.6 µM) | 4.96 (≈ 15.7 µM) | 25.3 (≈ 80 µM) | – | – | – | – | – | – | –
COc1ccc(CNC(CCc2ccccc2)c2nc(Cc3ccccc3)c(N3CCCCC3)o2)cc1OC (stereo unspecified) | 4 | 2 | 354 | 2.54 (≈ 4.83 µM) | > 10 | – | – | – | – | – | – | – | 3 (≈ 1.58 µg/mL) | > 5.2 | – | – | – | –
CCCCCC(C)NCc1coc(-c2cccc(OCC)c2)n1 (stereo unspecified) | – | – | – | 2.13 (≈ 6.73 µM) | 6.82 (≈ 21.6 µM) | – | – | – | – | – | 17 (≈ 53.7 µM) | – | – | 4.83 | – | 6.3 (≈ 1.99 µg/mL) | 30 | 97
CCCCCC(C)NCc1coc(-c2cccc(Cl)c2)n1 (stereo unspecified) | – | – | – | 2.08 (≈ 6.78 µM) | 7.27 (≈ 23.7 µM) | – | – | – | – | – | 14 (≈ 45.6 µM) | – | – | 5.02 | – | 12.5 (≈ 3.84 µg/mL) | 103 | 28
CC(C)(C)c1ccc(Oc2ncccc2/C(=N/O)Nc2cccc(F)c2)cc1 | 4 | 23.7 | 35.83 | > 5 | 3.39 (≈ 8.93 µM) | – | – | – | – | – | – | – | – | – | – | – | – | –
